In PubChem BioAssay (NCI) one finds TGI data, which are given here for 14 compounds.

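The compound was tested at five concentrations on cells cultured in 96-well plates, with a 48-hour exposure period. TGI denotes the concentration required for complete inhibition of growth.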 A value given as a limit tells only on which side of the number the result lay.

Among the test systems are A498 renal; HCT-116 colon; IGROV1 ovarian; KM12 colon; OVCAR-5 ovarian; SK-MEL-28 melanoma; SNB-19 CNS; SR leukemia; DU-145 prostate; PC-3 prostate.
Holding throughout (experiment): DTP human tumour cell line panel, 48 h

`Nc1cc(O)c2cc(N=Nc3ccc(N=Nc4ccc(N=Nc5ccc6cc(S(=O)(=O)O)cc(S(=O)(=O)O)c6c5)c5ccccc45)c4cc(S(=O)(=O)O)ccc34)c(S(=O)(=O)O)cc2c1`: the TGI with A498 renal, in the test on HCT-116 colon, in the test on IGROV1 ovarian, in the test with KM12 colon, with OVCAR-5 ovarian and in the test with SK-MEL-28 melanoma was over 100 µM each time. Moreover, the TGI with SNB-19 CNS was over 100 µM.

For the compound `NS(=O)(=O)c1cc2c(cc1Cl)NC(C(=O)NNC(=O)c1ccncc1)=NS2(=O)=O`, the TGI with HCT-116 colon, in the test on IGROV1 ovarian, in the test with KM12 colon, in the test on SK-MEL-28 melanoma, with SNB-19 CNS and in the test on SR leukemia was over 100 µM throughout.

Consider `CCOC(=O)N/N=C(/N)Cc1ccc(Cl)cc1`, for which the TGI in the test on DU-145 prostate, in the test with HCT-116 colon, in the test with IGROV1 ovarian, in the test on KM12 colon, in the test on OVCAR-5 ovarian and in the test with PC-3 prostate was over 100 µM each time. For the same compound, the TGI in the test with SK-MEL-28 melanoma and with SNB-19 CNS was over 100 µM in each case.

`NS(=O)(=O)C1CCCCC1C(=O)NNC(=O)C(=O)Nc1nc(=S)[nH][nH]1` (configuration not stated): the TGI in the test on A498 renal, in the test on HCT-116 colon, in the test with IGROV1 ovarian, in the test with KM12 colon, with OVCAR-5 ovarian and in the test with SK-MEL-28 melanoma was over 100 µM in each case. Further, the TGI with SNB-19 CNS and in the test on SR leukemia was over 100 µM throughout.

As to `CCCCCCCCCCCC1=C(O)C(=O)C=C(O)C1=O`, the TGI in the test with A498 renal was determined as 20.9 µM; with HCT-116 colon, 30.1 µM; in the test on IGROV1 ovarian, 20.5 µM; in the test with KM12 colon it was 31.6 µM; in the test with OVCAR-5 ovarian, 24.3 µM; in the test on SK-MEL-28 melanoma it was 37.5 µM. In addition, in the test on SNB-19 CNS, the TGI is 25.7 µM.

For the compound `Cn1c(=O)c(C#N)c(O)c2cc3ccccc3nc21`, the TGI in the test on HCT-116 colon, with IGROV1 ovarian, in the test on KM12 colon, in the test with SK-MEL-28 melanoma, in the test with SNB-19 CNS and in the test on SR leukemia was over 100 µM each time.

As to `Cc1c(N(Cc2ccccc2)Cc2ccccc2)nc(S(C)(=O)=O)nc1S(C)(=O)=O`, the TGI with HCT-116 colon amounted to 3.02 µM; in the test with IGROV1 ovarian, 3.21 µM; in the test with OVCAR-5 ovarian, 19.3 µM; in the test on SNB-19 CNS, 26.1 µM; in the test on SR leukemia, 4.18 µM.

For the compound `COc1c(-c2nc3nc(N4CCN(C)CC4)ccc3[nH]2)cc(OC)c2c1nc(CCl)n2C`, the concentration for total growth inhibition (TGI) in the test on DU-145 prostate was 78.2 µM; with HCT-116 colon, over 100 µM; in the test with IGROV1 ovarian, 36.8 µM; with KM12 colon, 30.8 µM; in the test with OVCAR-5 ovarian, 56.1 µM; in the test with PC-3 prostate, 28.2 µM. In addition, the values for the TGI in the test on SK-MEL-28 melanoma and in the test on SNB-19 CNS were 71.7 µM and over 100 µM, respectively.

For the compound `CCc1nc2cc(F)ccc2[nH]c1=O`, the TGI with A498 renal, in the test on DU-145 prostate, in the test with HCT-116 colon, with KM12 colon, in the test with OVCAR-5 ovarian and with PC-3 prostate was over 100 µM throughout. Further, the TGI with SK-MEL-28 melanoma and with SNB-19 CNS was over 100 µM in each case.

As for `N=c1sc(N2CCOCC2)nn1CC(=O)c1ccccc1`, the TGI with DU-145 prostate, with HCT-116 colon, in the test with IGROV1 ovarian, in the test with KM12 colon, with OVCAR-5 ovarian and in the test on PC-3 prostate was over 100 µM each time. Besides, the TGI in the test on SK-MEL-28 melanoma and in the test with SNB-19 CNS was over 100 µM in each case.

As to `O=[N+]([O-])c1cccc2c1[nH]c1c(-c3ccccc3)nccc12`, the concentration for total growth inhibition (TGI) was 12.9 µM in the test on A498 renal; 11.2 µM in the test with HCT-116 colon; 11.4 µM in the test with IGROV1 ovarian; 12.3 µM with KM12 colon; over 100 µM with OVCAR-5 ovarian; 21.9 µM in the test with SK-MEL-28 melanoma. The compound also came in with a TGI in the test on SNB-19 CNS of over 100 µM.

With `Cc1ccc(C)c(C(=O)CC2OC(O)C(Cl)C2Cl)c1` (configuration not stated), the TGI in the test on A498 renal, with HCT-116 colon, with IGROV1 ovarian, in the test on KM12 colon, with OVCAR-5 ovarian and with SK-MEL-28 melanoma was over 100 µM throughout. For the same compound, the TGI in the test on SNB-19 CNS and in the test on SR leukemia was over 100 µM in each case.

`Oc1[nH]c2ccccc2c1N=Nc1nc(-c2ccccc2)cs1`: the TGI was over 100 µM in the test on DU-145 prostate; over 100 µM with HCT-116 colon; over 100 µM with IGROV1 ovarian; over 100 µM in the test on KM12 colon; over 100 µM in the test on OVCAR-5 ovarian; 51.8 µM in the test with PC-3 prostate. Besides, the TGI in the test with SK-MEL-28 melanoma and with SNB-19 CNS was over 100 µM throughout.

In the case of `COc1ccc(Sc2ccccc2[N+](=O)[O-])cc1`, the TGI with A498 renal was over 100 µM; with HCT-116 colon, over 100 µM; with IGROV1 ovarian it was over 100 µM; in the test with KM12 colon, over 100 µM; with OVCAR-5 ovarian, over 100 µM; in the test with SK-MEL-28 melanoma it was 46.4 µM. In addition, the TGI in the test on SNB-19 CNS and with SR leukemia was over 100 µM in each case.

Usually TGI stands for the concentration giving total growth inhibition.
